In patent US4299822A, “N-Trifluoroacetyladriamycin-14-O-hemiglutarate and -hemiadipate and therapeutic compositions containing same” (Sidney Farber Cancer Institute, Inc., priority 1980, dated 1981):
Values after ≈ are worked out from the molar mass of the structure shown. Where two headings read alike, the source gives them in different places.

What was measured:
mice = test: toxicity to mice; format: in vivo, mouse
Protocol: (§1) The toxicity and therapeutic effectiveness of the new compounds and active agents of the present invention are shown by in vitro assays and by in vivo evaluations in mice. The in vitro assays measure the growth inhibiting activity of the materials against the CCRF-CEM cell line in culture. The cell line was derived from the peripheral blood of a child with lymphoblastic leukemia as described by Foley et al., Cancer, Volume 18, page 522 et seq. (1965), and the assays were carried out by the procedure of Foley and Lazarus, Biochem. Pharmacol., Volume 16, pages 659 et seq. (1967), the results being reported in terms of the dose in micromoles per liter required to inhibit growth of the cultures by 50% relative to control cultures to which no drug had been added (ID50). The in vivo evaluations were made by preparing a 0.2 to 0.7% by weight solution of the active agent in a formulation consisting of 10% by volume of each polyethoxylated castor oil and ethanol in saline and injecting the dosage intraperitoneally. The evaluations were made of the antitumor activity against the murine P388 and murine L1210 leukemias in BDF1 male mice according to standard National Cancer Institute protocols as set forth by Geran et al., Cancer Chemotherap. Rep., Part 3, Volume 3, pages 1 et seq. (1972) , except that a qd 1-4 schedule was used in place of qd 1-9 in order to conserve materials.

murine L1210 leukemia = test: in vivo antitumor activity against L1210 leukemia, ip days 1-4; set-up: species or system mouse (BDF1 male mice)
Protocol: as §1
(§2) Optimal dosage was determined by testing doses which were at several multiples of 10 milligrams/kilogram of body weight. Some effectiveness can be observed at dosages ranging from 30 to 70 milligrams/kilogram of body weight, depending upon the particular compound employed.
All compounds were administered intraperitoneally; in tests (1) and (2), the compounds were in 10% Emulphor EL-620, 10% ethanol, and 80% isotonic saline. In test (3) the compound was in aqueous buffer containing monobasic potassium phosphate and sodium hydroxide (0.05 M), pH 7.40: […]

murine P388 leukemia = test: in vivo antitumor activity against murine P388 leukemia, ip qd 1-4; set-up: species or system mouse (BDF1 male mice)
Protocol: as §1, §2
The following table summarizes the in vivo antitumor activity of the same compounds as those in Table I, evaluated against murine P388 leukemia as described above. All compounds were administered intraperitoneally, adriamycin in clinical formulation (1 part adriamycin plus 5 parts lactose, in 0.9% saline), the other compounds in 10% Emulphor EL-620, 10% ethanol, 80% isotonic saline.

solubility in water = conditions: for solubility: phosphate buffer, pH 7.4, aqueous buffer; for solubility in water relative to N-trifluoroacetyladriamycin-14-valerate: physiological pH in the range pH 7.2-7.5
[1] = cytotoxicity or anti-tumor activity (general statement); conditions: for cytotoxicity or anti-tumor activity relative to adriamycin: vs adriamycin; for cytotoxicity or anti-tumor activity relative to N-trifluoroacetyladriamycin-14-valerate: vs valerate
Protocol: as §1

[2] = hydrolytic stability in aqueous buffers, TLC quantification of N-trifluoroacetyladriamycin; format: physicochemical; conditions: for degraded at 24 h: aqueous buffer, dark, read-out: Percent hydrolyzed; for resistance to hydrolysis: aqueous solutions
From the text: The results were as follows:

CCRF-CEM cells = test: growth inhibition of CCRF-CEM cell line in culture; format: cell-based; conditions: Homo sapiens, read-out: ID50 (dose required to inhibit growth of the cultures by 50% relative to control)
From the text: The in vitro assays measure the growth inhibiting activity of the materials against the CCRF-CEM cell line in culture. […] The in vivo evaluations were made by preparing a 0.2 to 0.7% by weight solution of the active agent in a formulation consisting of 10% by volume of each polyethoxylated castor oil and ethanol in saline and injecting the dosage intraperitoneally. The evaluations were made of the antitumor activity against the murine P388 and murine L1210 leukemias in BDF1 male mice according to standard National Cancer Institute protocols as set forth by Geran et al., Cancer Chemotherap. Rep., Part 3, Volume 3, pages 1 et seq.

[3] = steroid administration to patients with vehicle-associated chest pain; cited from earlier work
[4] = clinical use; cited from earlier work
[5] = 50.0 mg/kg/d × 4 ip, 10% Emulphor EL-620, 10% ethanol, 80% isotonic saline
[6] = 60.0 mg/kg/d × 4 ip, 10% Emulphor EL-620, 10% ethanol, 80% isotonic saline
[7] = test (3): 50.0 mg/kg/d × 4 ip, aqueous phosphate buffer (0.05 M) pH 7.40
[8] = test (3): 60.0 mg/kg/d × 4 ip, aqueous phosphate buffer (0.05 M) pH 7.40
[9] = each dose 40.0 mg/kg ip, 10% Emulphor EL-620, 10% ethanol, 80% saline
[10] = each dose 50.0 mg/kg ip, 10% Emulphor EL-620, 10% ethanol, 80% saline
[11] = each dose 60.0 mg/kg ip, 10% Emulphor EL-620, 10% ethanol, 80% saline
[12] = each dose 70.0 mg/kg ip, 10% Emulphor EL-620, 10% ethanol, 80% saline
[13] = each dose 30.0 mg/kg ip, 10% Emulphor EL-620, 10% ethanol, 80% saline
[14] = each dose 1.0 mg/kg ip, clinical formulation (lactose, 0.9% saline)
[15] = each dose 2.0 mg/kg ip, clinical formulation (lactose, 0.9% saline)
[16] = each dose 3.0 mg/kg ip, clinical formulation (lactose, 0.9% saline)
[17] = each dose 4.0 mg/kg ip, clinical formulation (lactose, 0.9% saline)
[18] = each dose 5.0 mg/kg ip, clinical formulation (lactose, 0.9% saline)

## COc1cccc2c1C(=O)c1c(O)c3c(c(O)c1C2=O)CC(O)(C(=O)COC(=O)CCCCC(=O)O)CC3OC1CC(NC(=O)C(F)(F)F)C(O)C(C)O1 (centres unmarked) [N-Trifluoroacetyladriamycin-14-O-hemiadipate]
mice
  toxicity to mice relative to adriamycin or daunomycin: significantly less toxic to mice than adriamycin or daunomycin
Murine L1210 leukemia; [5]
  % ILS (percent median increase in life span relative to untreated controls, calculated as of day 50): > 456%
  No. alive on d 50: 7/7
Murine L1210 leukemia; [6]
  % ILS (percent median increase in life span relative to untreated controls, calculated as of day 50): > 456%
  No. alive on d 50: 6/7
Murine L1210 leukemia; ip
  prolonging the survival of mice bearing the L1210 leukemia: highly effective in prolonging the survival of mice bearing the L1210 leukemia
Murine L1210 leukemia; [7]
  % ILS (percent median increase in life span relative to untreated controls, calculated as of day 50): > 456%
  No. alive on d 50: 5/7
Murine L1210 leukemia; [8]
  % ILS (percent median increase in life span relative to untreated controls, calculated as of day 50): > 456%
  No. alive on d 50: 7/7
Murine P388 leukemia; [9]
  No. alive on d 30: 6/7
  No. alive on d 60: 6/7
  Survival, day of death (range only, no median): 25 days
Murine P388 leukemia; [10]
  No. alive on d 30: 6/7
  No. alive on d 60: 5/7
  Survival, day of death (range only, no median): 23,45 day
Murine P388 leukemia; [11]
  No. alive on d 30: 6/7
  No. alive on d 60: 6/7
  Survival, day of death (range only, no median): 24,93 day
Murine P388 leukemia; [12]
  No. alive on d 30: 7/7
  No. alive on d 60: 7/7
  Survival, day of death (range only, no median): 61 to 77 days
Solubility in water
  solubility: 60 mg/mL (≈ 78.2 mM)
  solubility in water relative to N-trifluoroacetyladriamycin-14-valerate: many times greater than that of N-trifluoroacetyladriamycin-14-valerate
[1]
  cytotoxicity or anti-tumor activity relative to adriamycin: greater than that of adriamycin
  cytotoxicity or anti-tumor activity relative to N-trifluoroacetyladriamycin-14-valerate: approximately equal to that of N-trifluoroacetyladriamycin-14-valerate
[2]; pH 7.4, pH 7.40, 4° C.
  degraded at 24 h: 0%
[2]; pH 7.4, pH 7.40, 27° C.
  degraded at 24 h: 0.5%
[2]; pH 8, pH 8.00, 4° C.
  degraded at 24 h: 0.3%
[2]; pH 8, pH 8.00, 27° C.
  degraded at 24 h: 1%
[2]; pH 9, pH 9.00, 4° C.
  degraded at 24 h: 0.5%
[2]
  resistance to hydrolysis: excellent resistance to hydrolysis
CCRF-CEM cells; CCRF-CEM cells, in vitro
  IC50: 310 nM

## COc1cccc2c1C(=O)c1c(O)c3c(c(O)c1C2=O)CC(O)(C(=O)COC(=O)CCCC(=O)O)CC3OC1CC(NC(=O)C(F)(F)F)C(O)C(C)O1 (centres unmarked) [N-Trifluoroacetyladriamycin-14-O-hemiglutarate]
mice
  toxicity to mice relative to adriamycin or daunomycin: significantly less toxic to mice than adriamycin or daunomycin
Murine P388 leukemia; [13]
  % ILS (percent increase in life span relative to untreated controls): 81%
  No. alive on d 30: 2/7
  No. alive on d 60: 0/7
  Survival, Median day of death (range): 20.0 (20-35) day
Murine P388 leukemia; [9]
  % ILS (percent increase in life span relative to untreated controls): 109%
  No. alive on d 30: 2/7
  No. alive on d 60: 1/7
  Survival, Median day of death (range): 23.0 (20-35) day
Murine P388 leukemia; [10]
  % ILS (percent increase in life span relative to untreated controls): 172%
  No. alive on d 30: 3/7
  No. alive on d 60: 2/7
  Survival, Median day of death (range): 30.0 (20-42) day
Murine P388 leukemia; [11]
  No. alive on d 30: 5/7
  No. alive on d 60: 4/7
  Survival, day of death (range only, no median): 20,29 day
Murine P388 leukemia; [12]
  No. alive on d 30: 5/7
  No. alive on d 60: 4/7
  Survival, day of death (range only, no median): 25 to 36 days
Solubility in water
  solubility: 65 mg/mL (≈ 86.2 mM)
  solubility in water relative to N-trifluoroacetyladriamycin-14-valerate: many times greater than that of N-trifluoroacetyladriamycin-14-valerate
[1]
  cytotoxicity or anti-tumor activity relative to adriamycin: greater than that of adriamycin
  cytotoxicity or anti-tumor activity relative to N-trifluoroacetyladriamycin-14-valerate: approximately equal to that of N-trifluoroacetyladriamycin-14-valerate
[2]; pH 7.4, pH 7.40, 4° C.
  degraded at 24 h: 0%
[2]; pH 7.4, pH 7.40, 27° C.
  degraded at 24 h: 1%
[2]; pH 9, pH 9.00, 4° C.
  degraded at 24 h: < 0.5%
[2]; pH 9, pH 9.00, 27° C.
  degraded at 24 h: 3%
[2]
  resistance to hydrolysis: excellent resistance to hydrolysis
CCRF-CEM cells; CCRF-CEM cells, in vitro
  IC50: 280 nM

## C[C@]12CCC(=O)C=C1CC[C@@H]1[C@@H]2[C@@H](O)C[C@@]2(C)[C@H]1CC[C@]2(O)C(=O)COC(=O)CCC(=O)O [hydrocortisone hemisuccinate]
[3]
  effect on chest pain symptom complex during valerate infusion: eliminated the symptom complex in those cases

## COc1cccc2c1C(=O)c1c(O)c3c(c(O)c1C2=O)C[C@@](O)(C(=O)CO)C[C@@H]3O[C@H]1C[C@H](N)[C@H](O)[C@H](C)O1 [Adriamycin]
Murine P388 leukemia; [14]
  % ILS (percent increase in life span relative to untreated controls): 81%
  No. alive on d 30: 0/7
  Survival, Median day of death (range): 20.0 (18-27) day
Murine P388 leukemia; [15]
  % ILS (percent increase in life span relative to untreated controls): 90%
  No. alive on d 30: 2/7
  No. alive on d 60: 1/7
  Survival, Median day of death (range): 21.0 (20-32) day
Murine P388 leukemia; [16]
  % ILS (percent increase in life span relative to untreated controls): 181%
  No. alive on d 30: 4/7
  No. alive on d 60: 2/7
  Survival, Median day of death (range): 31.0 (23-36) day
Murine P388 leukemia; [17]
  % ILS (percent increase in life span relative to untreated controls): 63%
  No. alive on d 30: 0/7
  Survival, Median day of death (range): 18.0 (7-28) day
Murine P388 leukemia; [18]
  No. alive on d 30: 0/7
  Survival, Median day of death (range): 9.0 (7-27) day
Murine P388 leukemia; ip, 5 mg/kg
  % ILS (percent increase in life span relative to untreated controls): -19%
[4]
  toxic side-effects (dose-limiting): acute myelosuppression and cumulative dose-related cardiac toxicity
CCRF-CEM cells; CCRF-CEM
  IC50: 50 nM

## COc1cccc2c1C(=O)c1c(O)c3c(c(O)c1C2=O)C[C@@](O)(C(C)=O)C[C@@H]3O[C@H]1C[C@H](N)[C@H](O)[C@H](C)O1 [daunorubicin]
[4]
  toxic side-effects (dose-limiting): acute myelosuppression and cumulative dose-related cardiac toxicity
